Source: patent publication US10604527B2, “Pyrazine compounds for the treatment of hepatitis B infection” (Hoffmann-La Roche Inc., priority 2016, dated 2020)

System: HBV
Test: HBV inhibition assay in HepG2.2.15 cells (extracellular HBV DNA by qPCR)
Type: cell-based
Settings: Hepatitis B virus, 120 h, extracellular HBV DNA in culture supernatant by qPCR, five days after compound treatment
Experimental: HepG2.2.15 is a stably-transfected cell line containing the HBV genome. It is derived from the hepatoblastoma cell line Hep G2 (American Type Culture Collection, ATCC® HB-8065™) by the published procedures described in reference: M A Selles et al. Proc. Natl. Acad. Sci. USA 1987, 84, 1005-1009. The cell line was maintained in Dulbecco's modified Eagle's medium (DMEM)-F12 medium supplemented with 10% fetal bovine serum, 20 mM L-glutamine, 0.1 mM NEAA, 50 U/mL penicillin, 50 μg/mL streptomycin, and 0.3 mg/mL of G418.
HepG2.2.15 cells were seeded into 96-well plates at a density of 3×10^4 cells per well in 100 μL DMEM/F12 media (Life Science, Cat. #: 11320-033) supplemented with 2.5% fetal bovine serum, 20 mM L-glutamine, 0.1 mM NEAA, 50 U/mL penicillin, 50 U/mL streptomycin and cultured overnight at 37° C. The test compounds were serially half-log diluted in DMSO, then diluted 100 times in culture media. 100 μL diluted solution of tested compounds were added into the plates to reach 0.5% final concentration of DMSO in every well. Five days after compound treatment, culture supernatant was collected for further analysis.
For quantitative PCR detection of extracellular HBV DNA, culture supernatant was processed by 500 μg/mL Proteinase K (Sigma, Cat. #: P2308) digestion at 50° C. for 1 hour. After heat inactivation of the enzyme at 95° C. for 15 minutes, the samples were subjected to HBV DNA quantification by qPCR. The effective compound concentration at which HBV replication inhibited by 50% (EC50) was determined.

Structure (SMILES)	EC50
C[C@H]1Cn2ncc(S(=O)(=O)C3CCOCC3)c2CN1C(=O)Nc1ccc(F)c(Cl)c1 [Example 15, (6S)-N-(3-chloro-4-fluoro-phenyl)-6-methyl-3-tetrahydropyran-4-ylsulfonyl-6,7-dihydro-4H-pyrazolo[1,5-a]pyrazine-5-carboxamide]	97 nM
CC(C)CS(=O)(=O)c1cnn2c1CN(C(=O)Nc1ccc(F)c(Cl)c1)C(C)C2 (centres unmarked) [Example 13, N-(3-chloro-4-fluoro-phenyl)-3-isobutylsulfonyl-6-methyl-6,7-dihydro-4H-pyrazolo[1,5-a]pyrazine-5-carboxamide]	24 nM
C[C@H]1Cn2ncc(S(=O)(=O)NC(C)(C)CO)c2CN1C(=O)Nc1cc(F)c(F)c(F)c1 [Example 27, (6S)-3-[(2-hydroxy-1,1-dimethyl-ethyl)sulfamoyl]-6-methyl-N-(3,4,5-trifluorophenyl)-6,7-dihydro-4H-pyrazolo[1,5-a]pyrazine-5-carboxamide]	156 nM
C[C@H]1Cn2ncc(S(=O)(=O)N3CC[C@H](O)C3)c2CN1C(=O)Nc1cc(F)c(F)c(F)c1 [Example 33, (6S)-3-[(3S)-3-hydroxypyrrolidin-1-yl]sulfonyl-6-methyl-N-(3,4,5-trifluorophenyl)-6,7-dihydro-4H-pyrazolo[1,5-a]pyrazine-5-carboxamide]	145 nM
COCCS(=O)(=O)N(C)c1cnn2c1CN(C(=O)Nc1cc(F)c(F)c(F)c1)[C@@H](C)C2 [Example 39, (6S)-3-[2-methoxyethylsulfonyl(methyl)amino]-6-methyl-N-(3,4,5-trifluorophenyl)-6,7-dihydro-4H-pyrazolo[1,5-a]pyrazine-5-carboxamide]	664 nM
C[C@H]1Cn2ncc(S(=O)(=O)C3CCOC3)c2CN1C(=O)Nc1cc(F)c(F)c(F)c1 (stereo partly drawn) [Example 16, (6S)-6-methyl-3-tetrahydrofuran-3-ylsulfonyl-N-(3,4,5-trifluorophenyl)-6,7-dihydro-4H-pyrazolo[1,5-a]pyrazine-5-carboxamide]	77 nM
CC1Cn2ncc(OC3CCCC3)c2CN1C(=O)Nc1ccc(F)c(Cl)c1 (centres unmarked) [Example 2, N-(3-chloro-4-fluoro-phenyl)-3-(cyclopentoxy)-6-methyl-6,7-dihydro-4H-pyrazolo[1,5-a]pyrazine-5-carboxamide]	8 nM
C[C@H]1Cn2ncc(Oc3ccccn3)c2CN1C(=O)Nc1cc(F)c(F)c(F)c1 [Example 7, (6S)-6-methyl-3-(2-pyridyloxy)-N-(3,4,5-trifluorophenyl)-6,7-dihydro-4H-pyrazolo[1,5-a]pyrazine-5-carboxamide]	984 nM
C[C@H]1Cn2ncc(S(=O)(=O)N3CCOCC3)c2CN1C(=O)Nc1cc(F)c(F)c(F)c1 [Example 32, (6S)-6-methyl-3-morpholinosulfonyl-N-(3,4,5-trifluorophenyl)-6,7-dihydro-4H-pyrazolo[1,5-a]pyrazine-5-carboxamide]	179 nM
C[C@H]1Cn2ncc(Oc3ncccn3)c2CN1C(=O)Nc1cc(F)c(F)c(F)c1 [Example 8, (6S)-6-methyl-3-pyrimidin-2-yloxy-N-(3,4,5-trifluorophenyl)-6,7-dihydro-4H-pyrazolo[1,5-a]pyrazine-5-carboxamide]	713 nM
CCS(=O)(=O)N(C)c1cnn2c1CN(C(=O)Nc1cc(F)c(F)c(F)c1)[C@@H](C)C2 [Example 40, (6S)-3-[ethylsulfonyl(methyl)amino]-6-methyl-N-(3,4,5-trifluorophenyl)-6,7-dihydro-4H-pyrazolo[1,5-a]pyrazine-5-carboxamide]	169 nM
